“And” between values parts separate entries of the source, which are not always exact repeats. Equal values may be shown once.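 The compound was tested at five concentrations on cells cultured in 96-well plates, with a 48-hour exposure period. GI50 = concentration required for 50% inhibition of growth. Definition used: TGI = concentration required for complete inhibition of growth.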
What was measured:
Assay in all cases: NCI tumour cell line growth inhibition, 48 h
MDA-N = test system: MDA-N
DMS 114 small cell lung = test system: DMS 114 small cell lung
LXFL 529 NSCLC = test system: LXFL 529 NSCLC
M19-MEL melanoma = test system: M19-MEL melanoma
RXF-631 renal = test system: RXF-631 renal
XF 498 CNS = test system: XF 498 CNS
HOP-18 NSCLC = test system: HOP-18 NSCLC
KM20L2 colon = test system: KM20L2 colon
DLD-1 colon = test system: DLD-1 colon
P388 leukemia = test system: P388 leukemia
P388/ADR leukemia = test system: P388/ADR leukemia
SN12K1 renal = test system: SN12K1 renal

SMILES | TGI (MDA-N) | TGI (DMS 114 small cell lung) | TGI (LXFL 529 NSCLC) | TGI (M19-MEL melanoma) | TGI (RXF-631 renal) | TGI (XF 498 CNS) | TGI (HOP-18 NSCLC) | TGI (KM20L2 colon) | TGI (DLD-1 colon) | further results
Cc1ccc(OCC2CO2)c(Br)c1 (configuration not stated) | 58.9 µM | – | – | – | – | – | – | – | – | –
CSC(=O)C[C@@]12O[C@@H]([C@@H](C)C3CCC4[C@@H]5C(O)CC6=CC(=O)C=C[C@]6(C)C5CC[C@@]43C)C[C@](C)(O1)C(C)(C)O2 (some centres not stated) | – | 39.9 µM | 26.4 µM | 8.4 µM | 54.9 µM | 28.8 µM | – | – | – | –
CC(=O)OC12C(C)=C(C)C(=O)N1c1ccccc1N2C(C)=O (configuration not stated) | – | – | > 100 µM | > 100 µM | – | > 100 µM | > 100 µM | > 100 µM | – | –
OC1CC2CCC(C1)N2CCCN1c2ccccc2Sc2ccc(Cl)cc21 (configuration not stated) | 3.62 µM | – | – | – | – | – | – | – | – | –
COC(=O)CCC(=O)Nc1ccc(Cl)cc1C | – | > 100 µM | > 100 µM | > 100 µM | > 100 µM | > 100 µM | > 100 µM | > 100 µM | > 100 µM | –
CCN(CC)CCN(CC)CC.CCN(CC)CCN(CC)CC.[Cu+2].[Cu+2].[O-][Cl+3]([O-])([O-])[O-].[OH3+].[OH3+] | – | 32.6 µM | > 100 µM | 53.7 µM | – | – | > 100 µM | 61.4 µM | > 100 µM | GI50 (DLD-1 colon): 51.9 µM; GI50 (DMS 114 small cell lung): 16.6 µM; GI50 (HOP-18 NSCLC): > 100 µM; GI50 (KM20L2 colon): 23.9 µM; GI50 (LXFL 529 NSCLC): > 100 µM; GI50 (M19-MEL melanoma): 24.2 µM
Cc1ccc(OP(=O)(Oc2ccc(C)cc2)N2C=Cc3ccccc3C2C#N)cc1 (configuration not stated) | > 100 µM | – | – | – | – | – | – | – | – | –
O=C(O)c1cccc(S(=O)(=O)NCCO)c1 | > 100 µM | – | – | – | – | – | – | – | – | –
O=[N+]([O-])c1ccc(-c2csc(N=Nc3c(O)[nH]c4ccccc34)n2)cc1 | > 100 µM | – | – | – | – | – | – | – | – | –
Nc1nc(=O)n(C2CCC(CO)O2)cc1F (configuration not stated) | – | > 100 µM | > 100 µM | – | – | – | > 100 µM | > 100 µM | > 100 µM | –
CC(Oc1ccc2c(-c3ccc(Cl)cc3)cc(=O)oc2c1)C(=O)O (configuration not stated) | – | – | > 100 µM | – | > 100 µM | > 100 µM | > 100 µM | > 100 µM | > 100 µM | –
CSC(=NC(=O)c1ccccc1Cl)SCCSC(=NC(=O)c1ccccc1Cl)SC | – | > 100 µM | – | > 100 µM | – | > 100 µM | – | > 100 µM | > 100 µM | –
CC(=O)OCc1c(O)c2c([nH]c1=O)CCc1ccccc1-2 | – | 155 µM | 111 µM | 108 µM | 149 µM | 104 µM | 295 µM | 263 µM | 162 µM | –
Cc1ccc(/C=C/C(=O)c2ccc(Cl)c(Cl)c2)cc1 | – | – | > 100 µM | – | > 100 µM | > 100 µM | > 100 µM | > 100 µM | > 100 µM | –
O=C1c2ccccc2C(=O)N1CCc1ncc(-c2ccccc2)[nH]1 | > 100 µM | – | – | – | – | – | – | – | – | –
O=S1(=O)c2ccccc2N(O)C2=NCCN21 | – | > 100 µM | > 100 µM | > 100 µM | – | – | – | > 100 µM | > 100 µM | –
O=C(c1c(F)c(F)c(F)c(F)c1F)c1c(F)c(F)c(F)c(F)c1F | 3.11 µM | – | – | – | – | – | – | – | – | –
O=C1CCCCCCC2=C1C(Sc1ccccc1)CC2 (configuration not stated) | – | 76.4 µM | > 100 µM | > 100 µM | – | – | > 100 µM | > 100 µM | – | –
COc1ccc(CC(=O)NCCc2ccc(OC)c(OC)c2OC)cc1 | – | > 100 µM | > 100 µM | > 100 µM | > 100 µM | > 100 µM | > 100 µM | > 100 µM | > 100 µM | –
O=C1Nc2c(Cl)cc(Cl)cc2/C1=N/N=C/c1ccco1 | 55.3 µM | – | – | – | – | – | – | – | – | –
CCCCCCCCCCCCSC(=S)c1c(C)[nH]n(-c2ccccc2)c1=O | – | 28.4 µM | > 50 µM | – | > 50 µM | – | > 50 µM | 39.5 µM | > 50 µM | –

SMILES | TGI (MDA-N) | TGI (DMS 114 small cell lung) | TGI (LXFL 529 NSCLC) | TGI (M19-MEL melanoma) | TGI (RXF-631 renal) | TGI (XF 498 CNS) | TGI (HOP-18 NSCLC) | TGI (KM20L2 colon) | TGI (DLD-1 colon) | further results
CC(C)(C)OC(=O)C1C(=O)NC(=O)CC1CC(OCc1ccccc1)C(OCc1ccccc1)C(COCc1ccccc1)OCc1ccccc1 (configuration not stated) | > 100 µM | – | – | – | – | – | – | – | – | GI50 (MDA-N): > 100 µM and 34.2 µM
O=C(C[n+]1ccccc1)N/N=C(/CCC(=O)N(Cc1ccccc1)Cc1ccccc1)CC(=O)c1ccccc1 | – | > 100 µM | > 100 µM | > 100 µM | > 100 µM | – | > 100 µM | > 100 µM | > 100 µM | –
O=C(O)Cc1cccc2c(=O)cc(-c3ccccc3)oc12 | 250 µM and > 893 µM | 250 µM | – | > 250 µM | – | 89.7 µM | 250 µM | > 250 µM | > 250 µM | GI50 (MDA-N): 176 µM; TGI (P388 leukemia): 250 µM; TGI (P388/ADR leukemia): 150 µM; TGI (SN12K1 renal): > 250 µM
C=CCC1(C(=O)OC)CCC/C(=N\O)C1 (configuration not stated) | > 10 µM | – | – | – | – | – | – | – | – | –
O=[N+]([O-])c1nccn1CC(O)c1ccccc1 (configuration not stated) | – | > 100 µM | > 100 µM | – | – | > 100 µM | > 100 µM | > 100 µM | – | –
NC(=O)c1cc(N2CC2)c([N+](=O)[O-])cc1[N+](=O)[O-] | > 200 µM | – | – | – | – | – | – | – | – | –
CCOC(=O)C12CCCC1(O)N(NC(=O)OC)C(C)=C2C(=O)OC (configuration not stated) | – | > 100 µM | > 100 µM | > 100 µM | > 100 µM | > 100 µM | > 100 µM | > 100 µM | > 100 µM | –
O=C(CC1(O)C(=O)Nc2c(Cl)cc(Cl)cc21)c1ccccc1 (configuration not stated) | – | > 100 µM | > 100 µM | > 100 µM | > 100 µM | > 100 µM | – | > 100 µM | – | –
COc1ccc(N2C(=O)C3CC(c4ccc(Br)cc4)c4c([nH]c5ccccc45)C3C2=O)cc1 (configuration not stated) | – | 20.8 µM | 14.2 µM | 25.6 µM | – | 32 µM | 24.8 µM | 27.3 µM | 23.4 µM | –
CC(C)(C)C(=O)N1C(C(=O)O)Cc2ccccc2[C@@H]1Cc1ccccc1 (some centres not stated) | – | > 100 µM | > 100 µM | > 100 µM | > 100 µM | > 100 µM | > 100 µM | > 100 µM | – | –
[N-]=[N+]=NCN1C(=O)C2C3C=CC(C2C1=O)C1C2C(=O)N(CN=[N+]=[N-])C(=O)C2C31 (configuration not stated) | > 100 µM | – | – | – | – | – | – | – | – | –
Cc1ccc(NCC2(/N=C/c3ccccc3)OC(CO)C(O)C2O)cc1 (configuration not stated) | – | > 100 µM | > 100 µM | – | – | > 100 µM | – | 49.4 µM | > 100 µM | –
COc1ccc(/C=C/c2cc(OC)c(OC(C)=O)c(OC)c2)cc1 | – | 84.7 µM | > 100 µM | > 100 µM | > 100 µM | > 100 µM | – | > 100 µM | > 100 µM | –
Cc1cccc(-c2nnc3s/c(=C\c4ccc(N(C)C)cc4)c(=O)n23)c1 | – | – | > 100 µM | > 100 µM | – | > 100 µM | > 100 µM | > 100 µM | > 100 µM | –
O=C1C2CCN(CC2)C1CN1CCOCC1 (configuration not stated) | 20.1 µM | – | 3.88 µM | 26.2 µM | 31 µM | 14.5 µM | 15.8 µM | 37 µM | 3.18 µM | –
NC(=S)N1N=C2CCCCCC[C@@H]2[C@H]1c1ccccc1 | – | > 100 µM | > 100 µM | > 100 µM | – | 76.5 µM | – | > 100 µM | > 100 µM | –
CN(C)CCNc1ccc2ncn3c4ccc(O)cc4c(=O)c1c23 | 15.1 µM | 16.8 µM | 14.6 µM | 13.1 µM | – | 17.1 µM | 49.6 µM | 12.9 µM | 16.1 µM | –
CCOC(=O)C1(C(=O)OCC)C(C(C)(C)C)=C(C)c2ccccc21 | – | 26.5 µM | 24.5 µM | 38.8 µM | 37.9 µM | 26.3 µM | 70.2 µM | 28.2 µM | 26.4 µM | –
COc1ccc(C(=O)C2CCC(C(=O)O)C2)cc1 (configuration not stated) | – | > 100 µM | > 100 µM | > 100 µM | – | – | – | > 100 µM | > 100 µM | –
NC(=O)CC1OC(=O)Cc2cc3c(c(O)c21)C(=O)c1c(O)cccc1C3=O (configuration not stated) | > 100 µM | – | – | – | – | – | – | – | – | –
